Test results reported in patent US20230365592A1 (Agios Pharmaceuticals, Inc., priority 2022, published 2023).

Molecular target: T1, human PAH with the R408W mutation (Homo sapiens, UniProt P00439, R408W)
T1 construct: expressed in transfected cells
T1 sequence (P00439 1-452 R408W): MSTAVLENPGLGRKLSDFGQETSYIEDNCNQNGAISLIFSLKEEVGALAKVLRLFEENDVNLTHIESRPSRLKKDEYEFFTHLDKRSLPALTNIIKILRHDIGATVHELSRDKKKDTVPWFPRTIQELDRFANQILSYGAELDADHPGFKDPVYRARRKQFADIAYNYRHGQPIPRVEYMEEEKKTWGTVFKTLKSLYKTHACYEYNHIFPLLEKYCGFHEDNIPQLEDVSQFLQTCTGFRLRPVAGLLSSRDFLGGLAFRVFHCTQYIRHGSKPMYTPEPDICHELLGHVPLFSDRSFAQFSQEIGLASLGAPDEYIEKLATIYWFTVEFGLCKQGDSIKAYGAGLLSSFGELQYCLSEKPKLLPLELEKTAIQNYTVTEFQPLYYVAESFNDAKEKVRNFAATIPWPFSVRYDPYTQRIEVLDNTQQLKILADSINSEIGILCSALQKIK
Experiment: Cell Based Phenylalanine Flux Assay;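 further: after compound treatment, cells received sepiapterin plus isotope-labelled Phenylalanine for 4 hours, then labelled Tyrosine in the medium was quantified, 10-point 2-fold dilution series run in duplicate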
Conditions: A375 cells expressing human R408W PAH; 24 hrs compound incubation; 13C-Tyrosine by LC-MS; average where tested multiple times; read-out: AC50

Row | SMILES | AC50 [µM]
1 | O=C(c1nnc(-c2ccn(C(F)(F)F)n2)o1)N1CCc2[nH]cnc2[C@@H]1c1cc2c(Cl)cccn2n1 [Example 1477, (R)-(4-(4-chloropyrazolo[1,5-a]pyridin-2-yl)-6,7-dihydro-1H-imidazo[4,5-c]pyridin-5(4H)-yl)(5-(1-(trifluoromethyl)-1H-pyrazol-3-yl)-1,3,4-oxadiazol-2-yl)methanone] | 1 to 5
2 | Cc1cccn2nc([C@@H]3c4nc[nH]c4CCN3C(=O)c3nnc(-c4ccn(C(F)(F)F)n4)o3)cc12 [Example 1478, (S)-(4-(4-methylpyrazolo[1,5-a]pyridin-2-yl)-6,7-dihydro-1H-imidazo[4,5-c]pyridin-5(4H)-yl)(5-(1-(trifluoromethyl)-1H-pyrazol-3-yl)-1,3,4-oxadiazol-2-yl)methanone] | < 0.5
3 | O=C(c1nnc(-c2ccn(C(F)(F)F)n2)o1)N1CCc2[nH]cnc2[C@H]1c1cc2c(C(F)F)cccn2n1 [Example 1480, (S)-(4-(4-(difluoromethyl)pyrazolo[1,5-a]pyridin-2-yl)-6,7-dihydro-1H-imidazo[4,5-c]pyridin-5(4H)-yl)(5-(1-(trifluoromethyl)-1H-pyrazol-3-yl)-1,3,4-oxadiazol-2-yl)methanone] | < 0.5
4 | O=C(c1nnc(-c2ccn(C(F)(F)F)n2)o1)N1CCc2[nH]cnc2[C@@H]1c1cc2c(C(F)F)cccn2n1 [Example 1481, (R)-(4-(4-(difluoromethyl)pyrazolo[1,5-a]pyridin-2-yl)-6,7-dihydro-1H-imidazo[4,5-c]pyridin-5(4H)-yl)(5-(1-(trifluoromethyl)-1H-pyrazol-3-yl)-1,3,4-oxadiazol-2-yl)methanone] | 1 to 5
5 | CC(C)c1nnc(C(=O)N2CCc3[nH]cnc3[C@@H]2c2cc3c(Cl)cccn3n2)o1 [Example 1485, (R)-(4-(4-chloropyrazolo[1,5-a]pyridin-2-yl)-6,7-dihydro-1H-imidazo[4,5-c]pyridin-5(4H)-yl)(5-isopropyl-1,3,4-oxadiazol-2-yl)methanone] | 1 to 5
6 | CC(C)c1nnc(C(=O)N2CCc3[nH]cnc3[C@H]2c2cc3c(C(F)(F)F)cccn3n2)o1 [Example 1486, (S)-(5-isopropyl-1,3,4-oxadiazol-2-yl)(4-(4-(trifluoromethyl)pyrazolo[1,5-a]pyridin-2-yl)-6,7-dihydro-1H-imidazo[4,5-c]pyridin-5(4H)-yl)methanone] | < 0.5
7 | CC(C)c1nnc(C(=O)N2CCc3[nH]cnc3[C@@H]2c2cc3c(C(F)(F)F)cccn3n2)o1 [Example 1487, (R)-(5-isopropyl-1,3,4-oxadiazol-2-yl)(4-(4-(trifluoromethyl)pyrazolo[1,5-a]pyridin-2-yl)-6,7-dihydro-1H-imidazo[4,5-c]pyridin-5(4H)-yl)methanone] | > 5
8 | CC(C)c1nnc(C(=O)N2CCc3[nH]cnc3[C@H]2c2cc3cccc(Cl)n3n2)o1 [Example 1488, (S)-(4-(7-chloropyrazolo[1,5-a]pyridin-2-yl)-6,7-dihydro-1H-imidazo[4,5-c]pyridin-5(4H)-yl)(5-isopropyl-1,3,4-oxadiazol-2-yl)methanone] | < 0.5
9 | Cc1cccc2cc([C@H]3c4nc[nH]c4CCN3C(=O)c3nnc(C(C)C)o3)nn12 [Example 1491, (R)-(5-isopropyl-1,3,4-oxadiazol-2-yl)(4-(7-methylpyrazolo[1,5-a]pyridin-2-yl)-6,7-dihydro-1H-imidazo[4,5-c]pyridin-5(4H)-yl)methanone] | 1 to 5
10 | CC(C)c1nnc(C(=O)N2CCc3[nH]cnc3[C@H]2c2cc3cccc(C(F)F)n3n2)o1 [Example 1492, (S)-(4-(7-(difluoromethyl)pyrazolo[1,5-a]pyridin-2-yl)-6,7-dihydro-1H-imidazo[4,5-c]pyridin-5(4H)-yl)(5-isopropyl-1,3,4-oxadiazol-2-yl)methanone] | 0.5 to 1
11 | CC(C)c1nnc(C(=O)N2CCc3[nH]cnc3[C@@H]2c2cc3cccc(C(F)F)n3n2)o1 [Example 1493, (R)-(4-(7-(difluoromethyl)pyrazolo[1,5-a]pyridin-2-yl)-6,7-dihydro-1H-imidazo[4,5-c]pyridin-5(4H)-yl)(5-isopropyl-1,3,4-oxadiazol-2-yl)methanone] | 1 to 5
12 | Cc1ncccc1-c1nnc(C(=O)N2CCc3[nH]cnc3[C@H]2c2cc3cccc(F)n3n2)o1 [Example 1494, (S)-(4-(7-fluoropyrazolo[1,5-a]pyridin-2-yl)-6,7-dihydro-1H-imidazo[4,5-c]pyridin-5(4H)-yl)(5-(2-methylpyridin-3-yl)-1,3,4-oxadiazol-2-yl)methanone] | < 0.5
13 | Cc1ncccc1-c1nnc(C(=O)N2CCc3[nH]cnc3[C@@H]2c2cc3cccc(F)n3n2)o1 [Example 1495, (R)-(4-(7-fluoropyrazolo[1,5-a]pyridin-2-yl)-6,7-dihydro-1H-imidazo[4,5-c]pyridin-5(4H)-yl)(5-(2-methylpyridin-3-yl)-1,3,4-oxadiazol-2-yl)methanone] | > 5
14 | Cc1cccc(-c2nnc(C(=O)N3CCc4[nH]cnc4[C@H]3c3cc4cccc(F)n4n3)o2)n1 [Example 1496, (S)-(4-(7-fluoropyrazolo[1,5-a]pyridin-2-yl)-6,7-dihydro-1H-imidazo[4,5-c]pyridin-5(4H)-yl)(5-(6-methylpyridin-2-yl)-1,3,4-oxadiazol-2-yl)methanone] | < 0.5
15 | Cc1cccc(-c2nnc(C(=O)N3CCc4[nH]cnc4[C@@H]3c3cc4cccc(F)n4n3)o2)n1 [Example 1497, (R)-(4-(7-fluoropyrazolo[1,5-a]pyridin-2-yl)-6,7-dihydro-1H-imidazo[4,5-c]pyridin-5(4H)-yl)(5-(6-methylpyridin-2-yl)-1,3,4-oxadiazol-2-yl)methanone] | 1 to 5
16 | O=C(c1nnc(-c2ncccn2)o1)N1CCc2[nH]cnc2[C@H]1c1cc2cccc(C(F)F)n2n1 [Example 1499, (S)-(4-(7-(difluoromethyl)pyrazolo[1,5-a]pyridin-2-yl)-6,7-dihydro-1H-imidazo[4,5-c]pyridin-5(4H)-yl)(5-(pyrimidin-2-yl)-1,3,4-oxadiazol-2-yl)methanone] | 0.5 to 1
17 | Cc1ncccc1-c1nnc(C(=O)N2CCc3[nH]cnc3[C@H]2c2cc3cccc(C(F)F)n3n2)o1 [Example 1500, (S)-(4-(7-(difluoromethyl)pyrazolo[1,5-a]pyridin-2-yl)-6,7-dihydro-1H-imidazo[4,5-c]pyridin-5(4H)-yl)(5-(2-methylpyridin-3-yl)-1,3,4-oxadiazol-2-yl)methanone] | < 0.5
18 | Cc1ncccc1-c1nnc(C(=O)N2CCc3[nH]cnc3[C@@H]2c2cc3cccc(C(F)F)n3n2)o1 [Example 1501, (R)-(4-(7-(difluoromethyl)pyrazolo[1,5-a]pyridin-2-yl)-6,7-dihydro-1H-imidazo[4,5-c]pyridin-5(4H)-yl)(5-(2-methylpyridin-3-yl)-1,3,4-oxadiazol-2-yl)methanone] | > 5
19 | O=C(c1nnc(-c2cnn(C(F)(F)F)c2)o1)N1CCc2[nH]cnc2[C@@H]1c1cc2cccc(C(F)F)n2n1 [Example 1503, (R)-(4-(7-(difluoromethyl)pyrazolo[1,5-a]pyridin-2-yl)-6,7-dihydro-1H-imidazo-[4,5-c]pyridin-5(4H)-yl)(5-(1-(trifluoromethyl)-1H-pyrazol-4-yl)-1,3,4-oxadiazol-2-yl)methanone] | > 5
20 | O=C(c1nnc(-c2cnn(C(F)(F)F)c2)o1)N1CCc2[nH]cnc2[C@H]1c1cc2c(Cl)cccn2n1 [Example 1504, (S)-(4-(4-chloropyrazolo[1,5-a]pyridin-2-yl)-6,7-dihydro-1H-imidazo[4,5-c]pyridin-5(4H)-yl)(5-(1-(trifluoromethyl)-1H-pyrazol-4-yl)-1,3,4-oxadiazol-2-yl)methanone] | < 0.5
21 | O=C(c1nnc(-c2ccn(C(F)(F)F)n2)o1)N1CCc2[nH]cnc2[C@H]1c1cc2ccccn2n1 [Example 1506, (S)-(4-(pyrazolo[1,5-a]pyridin-2-yl)-6,7-dihydro-1H-imidazo[4,5-c]pyridin-5(4H)-yl)(5-(1-(trifluoromethyl)-1H-pyrazol-3-yl)-1,3,4-oxadiazol-2-yl)methanone] | < 0.5
22 | O=C(c1nnc(-c2ccn(C(F)(F)F)n2)o1)N1CCc2[nH]cnc2[C@@H]1c1cc2ccccn2n1 [Example 1507, (R)-(4-(pyrazolo[1,5-a]pyridin-2-yl)-6,7-dihydro-1H-imidazo[4,5-c]pyridin-5(4H)-yl)(5-(1-(trifluoromethyl)-1H-pyrazol-3-yl)-1,3,4-oxadiazol-2-yl)methanone] | > 5
23 | O=C(c1nnc(-c2ccn(C(F)(F)F)n2)o1)N1CCc2[nH]cnc2[C@H]1c1cc2c(C(F)(F)F)cccn2n1 [Example 1512, (S)-(5-(1-(trifluoromethyl)-1H-pyrazol-3-yl)-1,3,4-oxadiazol-2-yl)(4-(4-(trifluoromethyl)pyrazolo[1,5-a]pyridin-2-yl)-6,7-dihydro-1H-imidazo[4,5-c]pyridin-5(4H)-yl)methanone] | < 0.5
24 | O=C(c1nnc(-c2ccn(C(F)(F)F)n2)o1)N1CCc2[nH]cnc2[C@@H]1c1cc2c(C(F)(F)F)cccn2n1 [Example 1513, (R)-(5-(1-(trifluoromethyl)-1H-pyrazol-3-yl)-1,3,4-oxadiazol-2-yl)(4-(4-(trifluoromethyl)pyrazolo[1,5-a]pyridin-2-yl)-6,7-dihydro-1H-imidazo[4,5-c]pyridin-5(4H)-yl)methanone] | 1 to 5
25 | O=C(c1nnc(C2CCC2)o1)N1CCc2[nH]cnc2[C@H]1c1cc2ccccn2n1 [Example 1514, (S)-(5-cyclobutyl-1,3,4-oxadiazol-2-yl)(4-(pyrazolo[1,5-a]pyridin-2-yl)-6,7-dihydro-1H-imidazo[4,5-c]pyridin-5(4H)-yl)methanone] | < 0.5
